This note sets out measurements from patent publication US20230295152A1 (SENDA BIOSCIENCES, INC., priority 2019, published 2023).

Data set [1] is described as follows: Hepatocyte Stability Assay, human. It counts as in vitro ADME. To be noted: cryopreserved hepatocytes in suspension; human hepatocytes; read-out: Human hepatocyte clearance. How it is done:
(§1) • Preparation of working solutions: 10 mM stock solutions of test compound and positive control were prepared in DMSO. In separate conical tubes, the 10 mM solution of test compound and the positive control were diluted to 100 μM by combining 198 μL of 50% acetonitrile/50% water and 2 μL of 10 mM stock.
(§2) Preparation of Hepatocytes: Incubation medium (William's E Medium supplemented with GlutaMAX) and hepatocyte thawing medium were placed in a 37° C. water bath and allowed warming for at least 15 minutes prior to use. A vial of cryopreserved hepatocytes was transferred from storage, ensuring that vials remained at cryogenic temperatures until thawing process ensued. Cells were thawed by placing the vial in a 37° C. water bath and gently shaking the vials for 2 minutes. After thawing was completed, vial was sprayed with 70% ethanol and transferred to a biosafety cabinet. Wide-bore pipette tip were used to transfer hepatocytes into 50 mL conical tube containing thawing medium. The 50 mL conical tube were placed into a centrifuge and spun at 100 g for 10 minutes. Upon completion of spin, thawing medium was aspirated and resuspended hepatocytes in enough incubation medium to yield ˜1.5×10^6 cells/mL. Using an AO/PI Staining, cells were counted and the viable cell density was determined. Cells with poor viability (<75% viability) were determined to be not acceptable for use. Cells were diluted with incubation medium to a working cell density of 0.5×10^6 viable cells/mL.
(§3) Procedure for Stability Determination: 198 μL of hepatocytes were pipetted into each wells of a 96-well non-coated plate. The plate was placed in the incubator to allow the hepatocytes to warm for 10 minutes. 2 μL of the 100 μM test compound or positive control solutions were pipetted into respective wells of the 96-well non-coated plate to start the reaction. The plate was returned to the incubator for the designed time points. Well contents was transferred in 25 μL aliquots at time points of 0, 15, 30, 60, 90 and 120 minutes. The aliquots were then mixed with 6 volumes (150 μL) of acetonitrile containing internal standard, IS (100 nM alprazolam, 200 nM caffeine and 100 nM tolbutamide) to terminate the reaction. The mixture was vortex for 5 minutes. Samples were centrifuged for 45 minutes at 3,220 g. An aliquot of 100 μL of the supernatant was diluted by 100 μL ultra-pure water, and the mixture was used for LC/MS/MS analysis. All incubations were performed in duplicate.
(§4) Data Analysis: All calculations were carried out using Microsoft Excel. Peak areas were determined from extracted ion chromatograms. In vitro half-life (t1/2) of parent compound was determined by regression analysis of the percent parent disappearance vs. time curve.
(§5) The in vitro half-life (in vitro t1/2) was determined from the slope value:
(§6) Conversion of the in vitro t1/2 (in min) into the in vitro intrinsic clearance (in vitro CLint, in μL/min/1×10^6 cells) was done using the following equation (mean of duplicate determinations):
(§7) V=incubation volume(0.2 mL);
(§8) N=number of hepatocytes per well(0.1×10^6 cells).
(§9) “+++” indicates a CLint value less than 20 mL/min/Kg, “++” indicates a CLint between 20 and 50 mL/min/Kg, and “+” indicates an CLint above 50 mL/min/Kg.

Data set [2] can be described thus: Hepatocyte Stability Assay, rat. Note: tested at 1 µM. Particulars: rat hepatocytes. In kind it is in vitro ADME. How it is done:
as §1, §2, §3, §4, §5, §6, §7, §8, §9

Turning to `C[C@@H](CO)n1cnc2c(-c3cccc(F)c3)nc(-c3ccc(C(F)(F)F)nc3)cc2c1=O` [Compound 8], in data set [1], the CLint scaled at 1 μM is less than 20 mL/min/kg. In data set [2], the Rat hepatocyte clearance result was “++ (“++” indicates a CLint between 20 and 50 mL/min/Kg)”. As for `C[C@@H](CO)n1cnc2c(-n3ccnc3)nc(-c3ccc(OC(F)(F)F)cc3)cc2c1=O` [Compound 44, (S)-3-(1-hydroxypropan-2-yl)-8-(1H-imidazol-1-yl)-6-(4-(trifluoromethoxy)-phenyl)pyrido[3,4-d]pyrimidin-4(3H)-one], in data set [1], the CLint scaled at 1 μM is less than 20 mL/min/kg. Moreover, the Rat hepatocyte clearance result in data set [2] was “+++ (“+++” indicates a CLint value less than 20 mL/min/Kg)”. On to `C[C@@H](n1cnc2c(-c3cccnc3)nc(-c3ccc(Cl)cc3)cc2c1=O)C(C)(C)O` [Compound 33], for which the CLint scaled at 1 μM in data set [1] was less than 20 mL/min/kg. Also, in data set [2], the Rat hepatocyte clearance result is “++ (“++” indicates a CLint between 20 and 50 mL/min/Kg)”. As for `C[C@@H](O)Cn1cnc2c(-c3cccnc3)nc(-c3ccc(C(F)(F)F)cn3)cc2c1=O` [Compound 144, (R)-3-(2-hydroxypropyl)-8-(pyridin-3-yl)-6-(5-(trifluoromethyl)pyridin-2-yl)pyrido[3,4-d]pyrimidin-4(3H)-one], in data set [1], the CLint scaled at 1 μM was less than 20 mL/min/kg.

With `CC(C)(O)Cn1cnc2c(-c3cnsc3)nc(-c3ccc(C(F)(F)F)nc3)cc2c1=O` [Compound 54], the CLint scaled at 1 μM in data set [1] is less than 20 mL/min/kg.

For `C[C@@H](n1cnc2c(-c3cnn(C)c3)nc(-c3ccc(Cl)cc3)cc2c1=O)C(C)(C)O` [Compound 31], the CLint scaled at 1 μM in data set [1] is less than 20 mL/min/kg. The Rat hepatocyte clearance entry in data set [2] is “++ (“++” indicates a CLint between 20 and 50 mL/min/Kg)”.

As to `O=c1c2cc(-c3ccc(C(F)(F)F)nc3)nc(-c3cccnc3)c2ncn1[C@H]1COC[C@H]1O` [Compound 126, 3-((3S,4S)-4-hydroxytetrahydrofuran-3-yl)-8-(pyridin-3-yl)-6-(6-(trifluoromethyl)pyridin-3-yl)pyrido[3,4-d]pyrimidin-4(3H)-one], in data set [1], the CLint scaled at 1 μM was less than 20 mL/min/kg.

On to `C[C@@H](CO)n1cnc2c(-c3cnsc3)nc(-c3ccc(Cl)cc3)cc2c1=O` [Compound 58], for which, in data set [1], the CLint scaled at 1 μM is less than 20 mL/min/kg. As to `C[C@H](O)Cn1cnc2c(-c3cccnc3)nc(-c3ccc(C(F)(F)F)cn3)cc2c1=O` [Compound 143, (S)-3-(2-hydroxypropyl)-8-(pyridin-3-yl)-6-(5-(trifluoromethyl)pyridin-2-yl)pyrido[3,4-d]pyrimidin-4(3H)-one], in data set [1], the CLint scaled at 1 μM is less than 20 mL/min/kg. On the same count and under the same terms, the value for `C[C@@H](CO)n1cnc2c(-c3cnn(C)c3)nc(-c3cnc(C(F)(F)F)nc3)cc2c1=O` [Compound 95] was less than 20 mL/min/kg; that for `O=c1c2cc(-c3ccc(C4CC4)nc3)nc(-c3cccnc3)c2ncn1C[C@H](O)C(F)(F)F` [Compound 120, (S)-6-(6-cyclopropylpyridin-3-yl)-8-(pyridin-3-yl)-3-(3,3,3-trifluoro-2-hydroxypropyl)pyrido[3,4-d]pyrimidin-4(3H)-one] was less than 20 mL/min/kg. `Cn1cc(-c2nc(-c3ccc(Cl)cc3)cc3c(=O)n(CC(C)(C)O)cnc23)cn1` [Compound 21]: the CLint scaled at 1 μM in data set [1] was less than 20 mL/min/kg. Besides, the Rat hepatocyte clearance result in data set [2] is recorded as “+++ (“+++” indicates a CLint value less than 20 mL/min/Kg)”. As to `C[C@@H](O)Cn1cnc2c(-c3cccnc3)nc(-c3ccc(C(F)(F)F)nc3)cc2c1=O` [Compound 112, (R)-3-(2-hydroxypropyl)-8-(pyridin-3-yl)-6-(6-(trifluoromethyl)pyridin-3-yl)pyrido[3,4-d]pyrimidin-4(3H)-one], the CLint scaled at 1 μM in data set [1] was less than 20 mL/min/kg.

Turning to `CC(C)(O)Cn1cnc2c(-c3cnsc3)nc(-c3ccc(C(F)(F)F)cn3)cc2c1=O` [Compound 101, 3-(2-hydroxy-2-methylpropyl)-8-(isothiazol-4-yl)-6-(5-(trifluoromethyl)pyridin-2-yl)pyrido[3,4-d]pyrimidin-4(3H)-one], the CLint scaled at 1 μM in data set [1] is less than 20 mL/min/kg. In the case of `C[C@@H](CO)n1cnc2c(-c3cccc(F)c3)nc(-c3ccc(C(F)(F)F)cn3)cc2c1=O` [Compound 47, (S)-8-(3-fluorophenyl)-3-(1-hydroxypropan-2-yl)-6-(5-(trifluoromethyl)pyridin-2-yl)pyrido[3,4-d]pyrimidin-4(3H)-one], in data set [1], the CLint scaled at 1 μM is less than 20 mL/min/kg. The Rat hepatocyte clearance result in data set [2] is recorded as “+++ (“+++” indicates a CLint value less than 20 mL/min/Kg)”. On to `O=c1c2cc(-c3ccc(C(F)(F)F)cn3)nc(-c3cccnc3)c2ncn1[C@@H]1COC[C@H]1O` [Compound 140, 3-((3R,4S)-4-hydroxytetrahydrofuran-3-yl)-8-(pyridin-3-yl)-6-(5-(trifluoromethyl)pyridin-2-yl)pyrido[3,4-d]pyrimidin-4(3H)-one], for which, in data set [1], the CLint scaled at 1 μM is less than 20 mL/min/kg. Consider `CC(C)(O)Cn1cnc2c(-c3cn[nH]c3)nc(-c3ccc(C(F)(F)F)nc3)cc2c1=O` [Compound 51], for which, in data set [1], the CLint scaled at 1 μM is less than 20 mL/min/kg. For the compound `Cc1nc(-c2cc3c(=O)n([C@@H](C)CO)cnc3c(-c3cccnc3)n2)cs1` [Compound 183, (S)-3-(1-hydroxypropan-2-yl)-6-(2-methylthiazol-4-yl)-8-(pyridin-3-yl)pyrido[3,4-d]pyrimidin-4(3H)-one], the CLint scaled at 1 μM in data set [1] is less than 20 mL/min/kg. As for `O=c1c2cc(-c3ccc(Cl)cc3)nc(-c3cccnc3)c2ncn1C[C@@H](O)C(F)(F)F` (single isomer, unassigned) [185 enantiomer 1], in data set [1], the CLint scaled at 1 μM is less than 20 mL/min/kg. Also, the Rat hepatocyte clearance result in data set [2] was “++ (“++” indicates a CLint between 20 and 50 mL/min/Kg)”. On to `C[C@@H](CO)n1cnc2c(-c3cncc(F)c3)nc(-c3ccc(OC(F)(F)F)cc3)cc2c1=O` [Compound 1, (S)-8-(5-fluoropyridin-3-yl)-3-(1-hydroxypropan-2-yl)-6-(4-(trifluoromethoxy)phenyl)pyrido[3,4-d]pyrimidin-4(3H)-one], for which the CLint scaled at 1 μM in data set [1] was less than 20 mL/min/kg. Further, in data set [2], the Rat hepatocyte clearance entry was “++ (“++” indicates a CLint between 20 and 50 mL/min/Kg)”. Consider `Cn1cc(-c2nc(-c3ccc(C(F)(F)F)nc3)cc3c(=O)n([C@@H]4COC[C@H]4O)cnc23)cn1` [Compound 115, 3-((3R,4S)-4-hydroxytetrahydrofuran-3-y1)-8-(1-methyl-1H-pyrazol-4-y1)-6-(6-(trifluoromethyl)pyridin-3-yl)pyrido[3,4-d]pyrimidin-4(3H)-one], for which the CLint scaled at 1 μM in data set [1] was less than 20 mL/min/kg. Take `O=c1c2cc(-c3ccc(C(F)(F)F)nc3)nc(-c3cccnc3)c2ncn1[C@H]1COC[C@@H]1O` [Compound 117]: the CLint scaled at 1 μM in data set [1] was less than 20 mL/min/kg. As to `Cn1cc(-c2nc(-c3ccc(Cl)cc3)cc3c(=O)n([C@H]4COC[C@H]4O)cnc23)cn1` [Compound 92], in data set [1], the CLint scaled at 1 μM was less than 20 mL/min/kg. In the case of `CNC(=O)[C@H](C)n1cnc2c(-c3cccnc3)nc(-c3ccc(C(F)(F)F)nc3)cc2c1=O` [Compound 156, (S)—N-methyl-2-(4-oxo-8-(pyridin-3-yl)-6-(6-(trifluoromethyl)pyridin-3-yl)pyrido[3,4-d]pyrimidin-3(4H)-yl)propanamide], the CLint scaled at 1 μM in data set [1] was less than 20 mL/min/kg. For `C[C@H](n1cnc2c(-c3cccnc3)nc(-c3cccnc3)cc2c1=O)C(C)(C)O` [Compound 34], the CLint scaled at 1 μM in data set [1] was less than 20 mL/min/kg. For `C[C@@H](CO)n1cnc2c(-c3cccnc3)nc(-c3cnc(C4CC4)s3)cc2c1=O` [Compound 66], in data set [1], the CLint scaled at 1 μM was 20 to 50 mL/min/kg. For the compound `Cn1cc(-c2nc(-c3cnc(C(F)(F)F)nc3)cc3c(=O)n(CC(C)(C)O)cnc23)cn1` [Compound 99], the CLint scaled at 1 μM in data set [1] was less than 20 mL/min/kg. Turning to `Cn1cc(-c2nc(-c3ccc(C4CC4)nc3)cc3c(=O)n(CC(C)(C)O)cnc23)cn1` [Compound 82], in data set [1], the CLint scaled at 1 μM was less than 20 mL/min/kg. With `CC(C)(O)Cn1cnc2c(-c3cccnc3)nc(-c3ccc(C4CC4)nc3)cc2c1=O` [Compound 81], in data set [1], the CLint scaled at 1 μM is less than 20 mL/min/kg. In the case of `C[C@@H](CO)n1cnc2c(-c3cnsc3)nc(-c3ccc(C(F)(F)F)cn3)cc2c1=O` [Compound 102, (S)-3-(1-hydroxypropan-2-y1)-8-(isothiazol-4-yl)-6-(5-(trifluoromethyl)pyridin-2-yl)pyrido[3,4-d]pyrimidin-4(3H)-one], the CLint scaled at 1 μM in data set [1] is less than 20 mL/min/kg. In the case of `Cc1ncc(-c2cc3c(=O)n([C@@H](C)CO)cnc3c(-c3cccnc3)n2)s1` [Compound 89], the CLint scaled at 1 μM in data set [1] is less than 20 mL/min/kg.
